Reference: publication PMC11219860, “A chemogenetic approach for dopamine imaging with tunable sensitivity” (Nature Communications, 2024)

Assays:
[1] = Open field behavior; type: in vivo, mouse
Experimental: For combined locomotion/photometry experiments in the open field (OF) in tethered mice, a 50 × 50 cm arena was used. Fiber photometry was conducted using a Doric photometry rig combined with a filter/mirror minicube set (Doric Lenses), as above. […] Data were sampled at 122 Hz. […] Mice were habituated to the chamber for 3 consecutive days (30 minutes per day). On experimental days, locomotor activity was video recorded and synchronized with fiber photometry signal recording. The baseline DA signal was recorded for 20 minutes, then the mouse received i.p. injection of vehicle or DETQ (10 mg/kg) in interleaved sessions. Following injection, the DA signal was recorded for an additional 90 minutes. The OF chamber was cleaned with ethanol and water between mice. Recording sessions were repeated at 48 hours intervals. Mouse behavior as well as photometry signals were analyzed with a custom-written MATLAB script. Mouse locomotion was computed using the body center point of the animal. The center zone of the arena was defined automatically during behavior data analysis as the 25 × 25 cm square with the central point aligned to the center of the open field. The distance moved and time spent in the center zone were quantified in 10 minutes time bins and as the total during the 90 minutes after ip injections. To test the dose-dependent effects of DETQ on locomotion in untethered mice, mice were injected i.p. with vehicle, DETQ (3, 10 or 30 mg/kg) or cocaine (20 mg/kg) while their locomotor activity was recorded in an OF arena (60 x 60 cm) for 45 min. Videos were recorded with a Logitech C270 camera and analyzed with DeepLabCut (version 2.1.8.2)[84] on an existing open field network. Representative traces were generated with the Anymaze (v7.2) software (Stoelting Co.).

[2] = biological target: T1, msDRD2 (Mus musculus, UniProt P61168); experiment: NanoBit complementation assay of mini-Gi recruitment; type: cell-based
T1 construct: expressed in transfected cells; host or cells: HEK293T
Experimental: To measure the effect of DETQ on mini-G protein recruitment by different GPCRs we used a Nanoluciferase (NanoBit)-based complementation assay[26],[27]. For this HEK293T cells were seeded in six-well plates (Techno Plastic Products) at a density of 300,000 cells per well and co-transfected with plasmids encoding either hmDRD1, msDRD1, msDRD2, msDRD5, msADRA1a, msβ2AR or ms5HT6 carrying a C-terminally fused SmBiT, in combination with the corresponding mini-G protein probe[78] (mini-Gs: for DRD1, DRD5, β2AR, 5HT6R; mini-Gq: for ADRA1a; or mini-Gi: for DRD2), which were N-terminally fused to LgBiT, in a 1:1 DNA ratio using Effectene transfection reagent (Qiagen). […] The plate was incubated at 37 °C for 30 min, before the luminescence signal was measured at 37 °C using a Tecan Spark plate reader before and after the manual addition of 25 µl of either ligand solution (final concentrations ranging from 1 nM to 100 µM), pure Fluorobrite-DMEM or 25 µl of a DETQ solution (1 µM final concentration).
For in vitro luminescence assays, ligand traces were divided by buffer traces, the area under the curve for each trace was calculated using GraphPad Prism, values were normalized and fitted as dose response curve. […] The statistical significance was determined using Welch’s ANOVA followed by Dunnett’s multiple comparison test (comparison of ligand or vehicle to ligand). […]

T1 sequence (P61168 whole entry): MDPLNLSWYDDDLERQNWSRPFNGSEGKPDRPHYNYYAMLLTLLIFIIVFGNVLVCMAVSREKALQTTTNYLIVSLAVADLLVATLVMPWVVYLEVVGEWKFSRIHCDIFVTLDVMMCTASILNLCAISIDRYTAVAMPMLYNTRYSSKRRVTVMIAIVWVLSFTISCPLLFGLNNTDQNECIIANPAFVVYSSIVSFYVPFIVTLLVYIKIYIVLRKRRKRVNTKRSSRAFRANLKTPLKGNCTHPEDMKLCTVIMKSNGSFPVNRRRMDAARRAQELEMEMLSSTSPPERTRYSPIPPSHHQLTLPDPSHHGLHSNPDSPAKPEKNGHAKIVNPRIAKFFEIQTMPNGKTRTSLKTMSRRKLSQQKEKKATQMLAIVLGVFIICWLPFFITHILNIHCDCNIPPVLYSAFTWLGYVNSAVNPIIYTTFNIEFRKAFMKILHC

## C[C@H]1c2cccc(C(C)(C)O)c2C[C@H](CO)N1C(=O)Cc1c(Cl)cccc1Cl [DETQ, 2-(2,6-dichlorophenyl)-1-((1S,3R)-3-(hydroxymethyl)-5-(2-hydroxypropan-2-yl)-1-methyl-3,4-dihydroisoquinolin-2(1H)-yl)ethan-1-one]
[1]; tethered mice, DETQ 10 mg/kg
  total locomotion or time spent in the center: did not observe any effect
[1]; untethered mice, 45 min, DETQ 3, 10, 30 mg/kg i.p., cocaine 20 mg/kg
  locomotion in open field: did not have a significant effect
[2]; DETQ 1 µM alone
  agonist mode: direct agonist effect: no direct agonist effect
[2]; DETQ 1 µM, DA
  allosteric modulator mode: effect on agonist dose-response: No allosteric effect
